In EP4582413A1, “ARYLTETRAHYDROPYRIDINE COMPOUND AND PEST CONTROL AGENT” (priority 2022, dated 2024):

How the values were obtained:
Assay type in all cases: in vivo
[1] = system: green peach aphids (Myzus persicae); assay: Insecticidal test for green peach aphids; details: Myzus persicae, foliar, 144 h; 500 ppm chemical solution sprinkled (2.5 mg/cm^2), wingless imagoes on leaf disc, six days, 25°C; read-out: death rate
Description: Wet absorbent cotton was laid on each glass dish having an inner diameter of 3 cm, a Chinese olive leaf cut into a circle having a diameter of 3 cm was placed thereon, and four wingless green peach aphids (Myzus persicae) imagoes were released. After a day, a 10% by mass emulsion of the presently invented compound prepared according to the above formulation example for an emulsion was diluted with water containing a spreader to prepare a chemical solution having a concentration of 500 ppm. The chemical solution prepared was sprinkled (2.5 mg/cm^2) with a rotary tower sprinkler, and the dishes were capped and accommodated in a thermostatic room at 25°C. […] The test was carried out in duplicate.

[2] = system: diamondback moths (Plutella xylostella); assay: Insecticidal test for diamondback moths; details: Plutella xylostella, 144 h; 500 ppm chemical solution, leaves soaked, third-instar larvae, six days, 25°C; read-out: death rate
In short: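 Leaves dipped about 10 s in a 500 ppm aqueous dilution of an emulsion formulation with spreader, then air-dried. Five third-instar larvae released per dish and held at 25 °C. Tested in duplicate.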

[3] = system: kennel ticks (Rhipicephalus sanguineus); assay: Effect test for kennel ticks; details: 10 µg/cm^2 thin film in glass container, protonymphs, two days, 25°C; for mortality at 10 µg/cm2: Rhipicephalus sanguineus, 48 h, read-out: death rate
Description: In 1 ml of acetone, 1 mg of the presently invented compound was dissolved to prepare a chemical solution having a concentration of 1000 ppm. The bottom surface and side surface of each glass container having an inner wall surface area of 25 cm^2 were coated with 250 µl of the chemical solution, and acetone was then volatilized to form a thin film of the compound on the inner wall of the glass container.
Into each of the treated glass containers, five kennel ticks (Rhipicephalus sanguineus) protonymphs (mixed-sex) were released, and the glass containers were capped and accommodated in a thermostatic room at 25°C.

[4] = system: cat fleas (Ctenocephalides felis); assay: whole plant or invertebrate; details: 72 h, read-out: death rate
In short: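 Glass containers (25 cm² inner surface) were coated with 250 µl of a 1000 ppm acetone solution, and the acetone was evaporated to leave a dry film. Five mixed-sex adult fleas were confined per container at 25°C. Mortality was scored after 3 days.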

[5] = system: western flower thrips (Frankliniella occidentalis); assay: Insecticidal activity against western flower thrips; details: Frankliniella occidentalis, 48 h; 500 ppm chemical solution sprinkled (2.5 mg/cm^2), larvae on common bean leaf, after 2 days; read-out: death rate
In short: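 Bean leaf squares on wet filter paper inoculated with 20 larvae. Compound emulsion diluted with spreader-containing water to 500 ppm and sprayed at 2.5 mg/cm^2 by rotary tower. Run in duplicate.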

[6] = system: brown rice planthoppers (Nilaparvata lugens); assay: Insecticidal test for brown rice planthoppers; details: Nilaparvata lugens, 144 h; 500 ppm chemical solution, rice leaf sheaths soaked, third-instar larvae, six days, 25°C; read-out: death rate
In short: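 Rice leaf sheaths dipped ~10 s in 500 ppm compound solution (emulsion diluted in water with spreader), air-dried, then infested with five third-instar larvae per tube at 25 °C. Mortality scored after 6 days, death rate calculated, in duplicate.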

SMILES	mortality at 500 µg/mL [1] [%]	mortality at 500 µg/mL [2] [%]	mortality at 10 µg/cm2 [3] [%]	mortality at 10 µg/cm2 [4] [%]	mortality at 500 µg/mL [5] [%]	mortality at 500 µg/mL [6] [%]	death rate [3] [%]
O=C(Nc1ccc(F)cc1)C1=C(O)CC(c2ccc(C(F)(F)F)c(-c3cccc(F)c3)c2)NC1=O (stereo not shown) [1-006]	≥ 90	≥ 90	≥ 50	≥ 50			
O=C(Nc1ccc(F)cc1)C1=C(O)CC(c2ccc(C(F)(F)F)c(-c3ccc(F)cc3)c2)NC1=O (stereo not shown) [1-007]	≥ 90	≥ 90	≥ 50	≥ 50	≥ 90		
O=C(Nc1ccc(F)cc1)C1=C(O)CC(c2nc(-c3ccc(F)c(F)c3)no2)NC1=O (stereo not shown) [3-027]	≥ 90	≥ 90		≥ 50	≥ 90	≥ 90	
O=C(Nc1ccc(F)cc1)C1=C(O)CC(c2nc(-c3cccc(Br)c3)no2)NC1=O (stereo not shown) [3-028]	≥ 90	≥ 90		≥ 50	≥ 90	≥ 90	
O=C(Nc1cc(F)ccn1)C1=C(O)CC(c2nc(-c3cccc(F)c3F)no2)NC1=O (stereo not shown) [3-049]	≥ 90	≥ 90		≥ 50	≥ 90	≥ 90	
O=C(Nc1cc(F)ccn1)C1=C(O)CC(c2nc(-c3ccccc3)no2)NC1=O (stereo not shown) [3-055]	≥ 90	≥ 90		≥ 50	≥ 90	≥ 90	
O=C(Nc1cc(F)ccn1)C1=C(O)CC(c2nc(-c3ccc(F)cc3)no2)NC1=O (stereo not shown) [3-056]	≥ 90	≥ 90		≥ 50	≥ 90	≥ 90	
O=C(Nc1cc(F)ccn1)C1=C(O)CC(c2nc(-c3ccccc3F)no2)NC1=O (stereo not shown) [3-058]	≥ 90	≥ 90		≥ 50	≥ 90	≥ 90	
O=C(Nc1ccc(F)cn1)C1=C(O)CC(c2nc(-c3ccc(O)nc3)no2)NC1=O (stereo not shown) [3-101]							≥ 50
O=C(Nc1ccc(F)cc1)C1=C(O)CC(c2nc(-c3ccc(F)cc3F)no2)NC1=O (stereo not shown) [3-131]	≥ 90	≥ 90		≥ 50	≥ 90	≥ 90	
O=C(Nc1ccccn1)C1=C(O)CC(c2nc(-c3ccc(F)cc3F)no2)NC1=O (stereo not shown) [3-132]	≥ 90	≥ 90		≥ 50	≥ 90	≥ 90	
O=C(Nc1cc(F)ccn1)C1=C(O)CC(c2nc(-c3c(F)cc(F)cc3F)no2)NC1=O (stereo not shown) [3-144]	≥ 90	≥ 90		≥ 50	≥ 90	≥ 90	
O=C(Nc1c(F)cccc1F)C1=C(O)CC(c2nc(-c3ccncc3F)no2)NC1=O (stereo not shown) [3-166]	≥ 90	≥ 90	≥ 50	≥ 50		≥ 90	
Cc1cccnc1NC(=O)C1=C(O)CC(c2nc(-c3ccc(F)cc3F)no2)NC1=O (stereo not shown) [3-174]	≥ 90	≥ 90		≥ 50	≥ 90	≥ 90	
O=C(Nc1ccccn1)C1=C(O)CC(c2nc(-c3ccccc3F)no2)NC1=O (stereo not shown) [3-186]		≥ 90	≥ 50	≥ 50	≥ 90	≥ 90	
O=C(Nc1cnccc1Cl)C1=C(O)CC(c2nc(-c3ccncc3Cl)no2)NC1=O (stereo not shown) [3-228]	≥ 90	≥ 90		≥ 50	≥ 90	≥ 90	
O=C(Nc1cc(Br)ccn1)C1=C(O)CC(c2nc(-c3ccncc3Cl)no2)NC1=O (stereo not shown) [3-232]	≥ 90	≥ 90		≥ 50	≥ 90	≥ 90	
O=C(Nc1ccc(F)cn1)C1=C(O)CC(c2nc(-c3ccncc3Cl)no2)NC1=O (stereo not shown) [3-236]	≥ 90	≥ 90		≥ 50	≥ 90	≥ 90	
O=C(Nc1nccs1)C1=C(O)CC(c2nc(-c3ccncc3F)no2)NC1=O (stereo not shown) [3-246]	≥ 90	≥ 90		≥ 50	≥ 90	≥ 90	
O=C(Nc1ccc(F)cn1)C1=C(O)CC(c2nc(-c3snc(Cl)c3Cl)no2)NC1=O (stereo not shown) [3-254]	≥ 90	≥ 90		≥ 50	≥ 90	≥ 90	
O=C(Nc1cnccn1)C1=C(O)CC(c2nc(-c3ccc(F)nc3)no2)NC1=O (stereo not shown) [3-257]	≥ 90	≥ 90		≥ 50	≥ 90	≥ 90	
O=C(Nc1ccc(F)cn1)C1=C(O)CC(c2nc(-c3ncco3)no2)NC1=O (stereo not shown) [3-265]	≥ 90	≥ 90		≥ 50	≥ 90	≥ 90	
O=C(Nc1cnc(Cl)cn1)C1=C(O)CC(c2nc(-c3ccnc(Cl)c3)no2)NC1=O (stereo not shown) [3-268]	≥ 90	≥ 90		≥ 50	≥ 90	≥ 90	
O=C(Nc1cnc(Cl)cn1)C1=C(O)CC(c2nc(-c3ccc(F)nc3)no2)NC1=O (stereo not shown) [3-269]	≥ 90	≥ 90		≥ 50	≥ 90	≥ 90	
